In patent US20030044400A1, “Composition and method for treating cells” (priority 2001, published 2003):

Columns and labels:
[1] = test system: transforming growth factor-beta (TGF); experiment: Binding of transforming growth factor-beta
PC-3 induced tumor = experiment: Prostate tumor (PC-3) in immunodeficient mice; type: in vivo, immunodeficient mice (TACN: NH (S)—NuFDF homozygous males); conditions: for reduction of prostate tumor: immunodeficient mice, 5 mg/30 g body weight, 5 days consecutive ip injection, vs control
Experimental: Another set of experiments were designed using immunodeficient mice (TACN: NH (S)—NuFDF homozygous males 3-4 wks old). The 2×10^7 PC-3 cells were implanted and allowed to grow for 6 wks. The mice in the control group received 0.5 ml saline intraperitoneally for 5 days and in the treated group received 0.5 ml Fetuin for 5 days.
The mice divided into 5 each group in this study were TACN:NH (S)—NuFDF homozygous males 3-4 weeks old and weighed an average of 22 g at the start of the experiment and 30 g at the termination of the experiment six weeks later. The animals were induced to prostate tumor formation by inoculating 2×10^7 PC-3 cells in 0.1 ml PBS suspension on the upper half of the dorsal thorax of the mouse. The tumor will be allowed to grow for 6 weeks. The mice in the control group will receive 0.1 ml saline intraperitoneally for 5 days and the mice in the treated group will receive 0.02 ml, 0.1 ml and 0.2 ml of Fetuin 10 mg/ml per day for 5 days. Treatment will start the day after tumor inoculation. Tumor will be weighed at the end of the experiment when the mice will be sacrificed for subsequent histopathology. Animals will be monitored daily for signs of tumor and/or any toxic effects from the test material.

PC-12 cells [2] = experiment: Apoptosis of PC-12 cells in the presence of serum; type: cell-based; conditions: PC-12 cells in 10% horse serum+5% FBS; 5 uM Fetuin
Experimental: PC-12 cells were seeded in 10% heat-inactivated horse serum+5% FBS+RPMI 1640 media for 1-2 days and treated with 5 uM Fetuin. […] The apoptosis-inducing activity of Fetuin at high concentration can be applied in therapy of neuroblastoma.

normal cell lines = experiment: Apoptosis in normal cell lines; type: cell-based; conditions: in 2-3 days
PC-12 cells [3] = experiment: Neurite outgrowth of PC-12 cells; type: cell-based; conditions: PC-12 cells in 0.5% serum+RPMI; 5uM Fetuin; over 2-3 days
Experimental: PC-12 cells were seeded in 10% heat-inactivated horse serum, 5% fetal bovine serum in RPMI 1640 medium for 1-2 days. The media were changed to 0.5% serum+RPMI overnight and treated with 5uM Fetuin.

P388 leukemia = experiment: P388 Leukemia Model; type: in vivo; conditions: P388-bearing DBA/2 mice; for Survivors: 10 per group
Experimental: All mice used were kept according to NIH standard regulation. The DBA/2 mice were divided into 4 groups, 10 mice in each group. The P388 innoculum tumor was induced by intraperitoneal injection of 10^6 cells per 0.1 ml innoculum. All doses were made up to a volume of 0.5 ml. Treatment was intraperitoneal injection of 0.5 ml saline (control), 0.002 ml of 10 mg/ml Fetuin (Group I), 0.02 ml (Group II) and 0.2 ml (Group III) for 10 days following tumor transplant. Mortalities were recorded daily. Results are expressed as the percent increase in life span (ILS) in Table 2.
ILS=100×Median Life Span Treated−Median Life Span Control

[4] = test system: immune system (splenic T- and B-cells, response to SRBC); conditions: mouse, in vivo
Experimental: The Balb/C mice weighed 20-30 g with six to eight weeks of age and divided equally between male and female are used. Fetuin is administered IV or IP to each group of six animals either a single dose or multiple doses ranging from 0.05 mg to 5 mg per 20 g body weight. The volume of each injection is 0.2 ml. Phosphate buffered saline is used as the control and dilution vehicle.
Flow cytometric characterization of splenic T- and B-cells in Fetuin treated mice: T cells of mice can be recognized by the presence of Thy 1.2 or Thy 1.1 (depending on the genotype of the mouse), receptors isolated on the surface of peripheral T cells (lymph node, spleen and blood) as well as thymic epithelia.

[5] = immunodeficient mice with PC-3, 0.5 ml Fetuin ip for 5 days, 9 mice

Fetuin: Fetal bovine fetuin purified from fetal bovine serum by modified Spiro method; 60 Kd glycoprotein, homologue of alpha 2-HS glycoprotein
binding of transforming growth factor-beta (TGF) [1]: high affinity | Ave. Mouse Weight (gm) (PC-3 induced tumor; [5]): 30.6 gm | Ave. Tumor Weight (gm) (PC-3 induced tumor; [5]): 0 gm | Tumor Incidence (%) (PC-3 induced tumor; [5]): 0% | reduction of prostate tumor (PC-3 induced tumor): up to 100% | reduction of prostate tumor (PC-3 induced tumor; listed as Fetal fetuin): 100% | apoptosis-inducing activity (PC-12 cells [2]): apoptosis-inducing activity was observed | apoptosis in normal cell lines (normal cell lines): not the normal cell lines | neurite outgrowth (PC-12 cells [3]): neurite outgrowth was observed in many of the cells | Survivors (P388 leukemia; 0.002 ml of 10 mg/ml Fetuin ip for 10 days, bracket (31) = day): 1 (31) | Survivors (P388 leukemia; 0.02 ml of 10 mg/ml Fetuin ip for 10 days, bracket (29) = day): 1 (29) | Survivors (P388 leukemia; 0.2 ml of 10 mg/ml Fetuin ip for 10 days (highest dose), bracket (58) = day, listed as Fetal fetuin): 8 | (ILS) Increased Life Span (P388 leukemia; 0.002 ml of 10 mg/ml Fetuin ip for 10 days): 29% | (ILS) Increased Life Span (P388 leukemia; 0.02 ml of 10 mg/ml Fetuin ip for 10 days): 17.2% | (ILS) Increased Life Span (P388 leukemia; 0.2 ml of 10 mg/ml Fetuin ip for 10 days (highest dose)): 141% | cell surface density of s-Ig on the B-cells [4]: no significant differences | fraction of lymphocytes which were B-cells (s-Ig+) [4]: no differences between treatment groups | fraction of splenic lymphocyte that were T-cells [4]: remained constant | mean level of expression of Thy 1.2 [4]: did not differ significantly
